According to ChEMBL document CHEMBL1129326, “Inhibition of DNA topoisomerase II by azaelliptitoxins functionalized in the variable substituent domain” (J Med Chem, 1996):
Calls of active or inactive are those of the source. The calls are words filed in the database; no cut-off is given here.

Target: DNA topoisomerase II (Homo sapiens) (UniProt P11388+Q02880)
Experiment: Inhibitory activity against human DNA Topoisomerase-2, activity is expressed as relative DNA cleavage compared to Azatoxin by densitometric analysis; inactive
Type: protein assay

SMILES | Activity
COc1cc([C@@H]2c3[nH]c4ccccc4c3[C@@H](OC)[C@H]3COC(=O)N23)cc(OC)c1O | inactive
COc1cc(N[C@@H]2c3c([nH]c4ccccc34)[C@@H](c3cc(OC)c(O)c(OC)c3)N3C(=O)OC[C@H]23)ccc1O | inactive
COc1cc([C@@H]2c3[nH]c4ccccc4c3[C@@H](Nc3cc(OC)c(OC)c(OC)c3)[C@H]3COC(=O)N23)cc(OC)c1O | inactive
